Values joined by “and” are separate entries in the source; they are usually repeats but may differ in a detail not shown here. Equal values may be shown once. Read-outs that look alike come from different tables or passages of the source.
Assays:
H. pylori urease (HPU) [1] = molecular target: T1, H. pylori urease (HPU) (Helicobacter pylori, UniProt P69996); experiment: biochemical; conditions: Pal 0.5 mM, thiols 1.25 mM, replicates; for activity at 1250 µM: read-out: Residual urease activity (percent of control), Fig 4A HPU; for Residual urease activity (percent of control): Fig 4A HPU
T1 construct: HPU was prepared as previously described; made in house
T1 sequence (P14916 whole entry): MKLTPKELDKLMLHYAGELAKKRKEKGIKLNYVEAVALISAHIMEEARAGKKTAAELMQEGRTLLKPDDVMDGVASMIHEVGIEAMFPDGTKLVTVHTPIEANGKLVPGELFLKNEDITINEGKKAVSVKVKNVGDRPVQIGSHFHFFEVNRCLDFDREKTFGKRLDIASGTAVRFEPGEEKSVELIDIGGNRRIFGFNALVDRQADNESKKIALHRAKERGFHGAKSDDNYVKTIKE
T1 sequence (P69996 whole entry): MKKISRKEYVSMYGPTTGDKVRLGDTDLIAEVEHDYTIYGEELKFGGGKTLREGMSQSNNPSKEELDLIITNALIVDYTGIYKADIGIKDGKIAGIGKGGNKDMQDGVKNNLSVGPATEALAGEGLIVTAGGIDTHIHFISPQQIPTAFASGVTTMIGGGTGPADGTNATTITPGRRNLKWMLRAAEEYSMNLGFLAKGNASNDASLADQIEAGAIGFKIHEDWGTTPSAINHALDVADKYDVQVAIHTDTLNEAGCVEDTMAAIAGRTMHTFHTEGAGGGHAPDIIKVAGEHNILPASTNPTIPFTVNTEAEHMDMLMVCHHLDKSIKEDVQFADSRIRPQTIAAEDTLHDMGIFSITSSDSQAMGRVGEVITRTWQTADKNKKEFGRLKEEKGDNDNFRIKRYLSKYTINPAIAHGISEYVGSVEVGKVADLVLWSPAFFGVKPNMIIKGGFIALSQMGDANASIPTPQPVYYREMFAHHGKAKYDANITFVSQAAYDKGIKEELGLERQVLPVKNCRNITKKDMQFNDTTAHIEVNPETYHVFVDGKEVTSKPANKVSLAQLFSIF
Description: (§1) For the protection with thiols-containing compounds, the mixture consisting of 0.25 mg/mL urease (HPU or JBU), 0.5 mM Pal (for both HPU and JBU) and 1.25 mM thiols (DTT, GSH and L-cys) was incubated for 5, 10, 20, and 40 min at 37°C, respectively. The control sample instead of the protectors contained a proper volume of respective buffer.

jack bean urease (JBU) [2] = molecular target: T2, jack bean urease (JBU) (Canavalia ensiformis, UniProt P07374); experiment: biochemical; conditions: Pal 0.5 mM, thiols 1.25 mM, replicates; for activity at 1250 µM: read-out: Residual urease activity (percent of control), Fig 4B JBU; for Residual urease activity (percent of control): Fig 4B JBU
T2 construct: Urease from jack bean (Canavalia ensiformis, JBU); purchased Sigma-Aldrich (St Louis, MO, USA) type III (catalogue number not given)
T2 sequence (P07374 whole entry, looked up): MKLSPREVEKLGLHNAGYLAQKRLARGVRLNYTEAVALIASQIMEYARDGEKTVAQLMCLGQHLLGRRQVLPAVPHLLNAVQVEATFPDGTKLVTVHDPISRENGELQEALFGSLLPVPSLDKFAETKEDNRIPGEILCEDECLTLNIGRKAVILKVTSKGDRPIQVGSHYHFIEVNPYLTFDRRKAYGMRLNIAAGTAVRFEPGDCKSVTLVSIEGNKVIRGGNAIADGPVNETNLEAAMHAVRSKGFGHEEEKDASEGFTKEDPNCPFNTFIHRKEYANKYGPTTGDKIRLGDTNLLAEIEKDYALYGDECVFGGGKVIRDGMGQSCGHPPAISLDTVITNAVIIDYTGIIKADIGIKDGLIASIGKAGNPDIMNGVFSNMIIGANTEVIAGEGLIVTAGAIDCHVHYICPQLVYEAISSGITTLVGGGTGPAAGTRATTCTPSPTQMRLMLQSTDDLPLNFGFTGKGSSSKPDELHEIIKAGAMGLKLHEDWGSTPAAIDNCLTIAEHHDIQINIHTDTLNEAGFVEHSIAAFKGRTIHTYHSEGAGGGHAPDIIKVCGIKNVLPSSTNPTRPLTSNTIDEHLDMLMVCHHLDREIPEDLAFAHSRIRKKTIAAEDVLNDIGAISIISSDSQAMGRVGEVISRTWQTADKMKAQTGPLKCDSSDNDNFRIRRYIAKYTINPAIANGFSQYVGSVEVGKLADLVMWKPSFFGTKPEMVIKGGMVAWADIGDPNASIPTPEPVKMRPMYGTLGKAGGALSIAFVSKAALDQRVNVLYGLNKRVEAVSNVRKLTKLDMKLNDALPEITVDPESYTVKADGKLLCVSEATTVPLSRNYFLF
Description: as §1

H. pylori urease (HPU) [3] = molecular target: T1, H. pylori urease (HPU); experiment: biochemical; type: biochemical; conditions: thiols 1.25 mM, Pal 0.5 mM, 20+20 min; for activity at 1250 µM: read-out: Residual urease activity (percent of control), Fig 5A HPU; for Residual urease activity (percent of control): Fig 5A HPU
Description: (§2) The reaction mixture consisted of 0.25 mg/mL HPU or JBU, 0.5 mM Pal (for both HPU and JBU), and 1.25 mM thiols (DTT, GSH, or L-cys) in 20 mM HEPES buffer (pH 7.5). The components of the incubation mixture were mixed according to three procedures: (1) Urease was added to the mixture after a 20-min co-incubation of Pal with thiol. (2) Pal was added to the mixture after a 20-min co-incubation of urease with thiol. (3) Thiols were added to the mixture after a 20-min co-incubation of urease with Pal. The incubation mixture containing all components was incubated for further 20 min and the activity of urease was determined. The experiments were triply performed.

jack bean urease (JBU) [4] = molecular target: T2, jack bean urease (JBU); experiment: biochemical; type: biochemical; conditions: thiols 1.25 mM, Pal 0.5 mM, 20+20 min; for activity at 1250 µM: read-out: Residual urease activity (percent of control), Fig 5B JBU; for Residual urease activity (percent of control): Fig 5B JBU
Description: as §2

H. pylori urease (HPU) [5] = molecular target: T1, H. pylori urease (HPU); experiment: biochemical; type: biochemical; conditions: for Urease activity: Fig 6A HPU
Description: (§3) The reactivation of Pal-inactivated urease was investigated by DTT application. The preincubation mixture consisted of 0.25 mg/mL HPU or JBU and 0.5 mM Pal in 20 mM HEPES buffer (pH 7.5). Then the mixture was further incubated with 1.25 mM DTT after 20 min. The enzymatic activity of urease was determined before and after the addition of DTT. After a while, aliquots were withdrawn and the urease residual activity was determined. The experiments were repeated three times.

jack bean urease (JBU) [6] = molecular target: T2, jack bean urease (JBU); experiment: biochemical; type: biochemical; conditions: for Urease activity: Fig 6B JBU
Description: as §3

H. pylori urease (HPU) [7] = molecular target: T1, H. pylori urease (HPU); experiment: Urease inhibition test (modified Berthelot method); type: biochemical; conditions: HPU 0.25 mg/mL; 20 min preincubation 37°C, pH 7.5; read-out: IC50
Description: (§4) HPU was prepared as previously described. The standard urease assay mixture included 150 mM urea in 20 mM HEPES buffer (pH 7.5). After addition of small aliquots of enzyme-containing solution of urease, the assay ran for 20 min. The enzymatic activity was evaluated spectrophotometrically by detecting the ammonia concentration at 595 nm according to the modified Berthelot (phenol-hypochlorite) method. Urease activity was estimated with JBU as a standard, the specific activity of HPU was determined to be 17.0 U/mg. One unit of urease activity was defined as 1 μmol of ammonia released per min at 25°C. The amount of protein was determined by commercial Bradford Protein Assay Kit with BSA as a standard. The amount of ammonia released was decided from a standard curve. The activity of uninhibited urease was defined as the control activity of 100%.
(§5) Reaction mixtures comprising 0.25 mg/mL HPU or JBU and different concentrations of Pal or AHA at the volume ratio of 1:1, were incubated at 37°C in 20 mM HEPES buffer (pH 7.5) in the absence of urea. The reactions were initiated by mixing the urease and the inhibitor. The preincubation mixture was withdrawn at 20 min and immediately transferred into the standard assay mixtures for urease residual activity determination. Inhibition rate (%) was calculated following the formula: I % = (1-activity with inhibitors/activity without inhibitors) × 100%. The IC50 was expressed as the concentration of inhibitor that decreased urease activity by 50% and calculated by plotting the percent of inhibition. The experiments were triply performed.

jack bean urease (JBU) [8] = molecular target: T2, jack bean urease (JBU); experiment: Urease inhibition test (modified Berthelot method); type: biochemical; conditions: JBU 0.25 mg/mL; 20 min preincubation 37°C, pH 7.5; read-out: IC50
Description: as §4, §5

[9] = 1.25 mM DTT, control of reactivation assay
[10] = incubation time 5 min, Pal 0.5 mM, DTT 1.25 mM
[11] = incubation time 10 min, Pal 0.5 mM, DTT 1.25 mM
[12] = incubation time 15 min, Pal 0.5 mM, DTT 1.25 mM
[13] = incubation time 20 min, Pal 0.5 mM, DTT 1.25 mM
[14] = incubation time 120 min, DTT added post 20 min

`N[C@@H](CCC(=O)N[C@@H](CS)C(=O)NCC(=O)O)C(=O)O` [GSH, glutathione] showed an activity at 1250 µM (H. pylori urease (HPU) [1]; 5 min, 5 min incubation) of 72.8%, an activity at 1250 µM (H. pylori urease (HPU) [1]; 10 min, 10 min incubation) of 90.4% and an activity at 1250 µM (H. pylori urease (HPU) [1]; 20 min, 20 min incubation) of 94.7%. For the same compound, the activity at 1250 µM (H. pylori urease (HPU) [1]; 40 min, 40 min incubation) was 97.5%, the activity at 1250 µM (jack bean urease (JBU) [2]; 5 min, 5 min incubation) was 129% and the activity at 1250 µM (jack bean urease (JBU) [2]; 10 min, 10 min incubation) was 130%. The activity at 1250 µM (jack bean urease (JBU) [2]; 20 min, 20 min incubation) was 129%, the activity at 1250 µM (jack bean urease (JBU) [2]; 40 min, 40 min incubation) was 146% and the activity at 1250 µM (H. pylori urease (HPU) [3]; order (Protector+Pal)+urease) was 90.2%. The activity at 1250 µM (H. pylori urease (HPU) [3]; order (urease+Pal)+Protector) was 85.2%, the activity at 1250 µM (H. pylori urease (HPU) [3]; order (urease+Protector)+Pal) was 86.2% and the activity at 1250 µM (jack bean urease (JBU) [4]; order (Protector+Pal)+urease) was 139%. It also gave an activity at 1250 µM (jack bean urease (JBU) [4]; order (urease+Pal)+Protector) of 140%.

With `N[C@@H](CS)C(=O)O` [L-Cys, L-cysteine] the activity at 1250 µM (H. pylori urease (HPU) [1]; 5 min, 5 min incubation) was 118%, the activity at 1250 µM (H. pylori urease (HPU) [1]; 10 min, 10 min incubation) was 107% and the activity at 1250 µM (H. pylori urease (HPU) [1]; 20 min, 20 min incubation) was 109%. It also gave an activity at 1250 µM (H. pylori urease (HPU) [1]; 40 min, 40 min incubation) of 112%, an activity at 1250 µM (jack bean urease (JBU) [2]; 5 min, 5 min incubation) of 102% and an activity at 1250 µM (jack bean urease (JBU) [2]; 10 min, 10 min incubation) of 109%. For the same compound, the activity at 1250 µM (jack bean urease (JBU) [2]; 20 min, 20 min incubation) was 117%, the activity at 1250 µM (jack bean urease (JBU) [2]; 40 min, 40 min incubation) was 150% and the activity at 1250 µM (H. pylori urease (HPU) [3]; order (Protector+Pal)+urease) was 83.2%. The activity at 1250 µM (H. pylori urease (HPU) [3]; order (urease+Pal)+Protector) was 82.4%, the activity at 1250 µM (H. pylori urease (HPU) [3]; order (urease+Protector)+Pal) was 105% and the activity at 1250 µM (jack bean urease (JBU) [4]; order (Protector+Pal)+urease) was 147%. For the same compound, the activity at 1250 µM (jack bean urease (JBU) [4]; order (urease+Protector)+Pal) was 146%.

With `O[C@@H](CS)[C@@H](O)CS` (racemic) [DTT, dithiothreithol] the “Residual urease activity (percent of control)” value (H. pylori urease (HPU) [1]; 5 min incubation) was 81.4793% and 82.3893% and 84.6876%, the “Residual urease activity (percent of control)” value (H. pylori urease (HPU) [1]; 10 min incubation) was 90.4823% and 88.7843% and 92.6863% and the “Residual urease activity (percent of control)” value (H. pylori urease (HPU) [1]; 20 min incubation) was 93.6879% and 92.2701% and 94.7893%. For the same compound, the “Residual urease activity (percent of control)” value (H. pylori urease (HPU) [1]; 40 min incubation) was 98.9725% and 95.7934% and 96.4654%, the “Residual urease activity (percent of control)” value (jack bean urease (JBU) [2]; 5 min incubation) was 93.6533% and 90.8565% and 95.5784% and the “Residual urease activity (percent of control)” value (jack bean urease (JBU) [2]; 10 min incubation) was 106.756% and 109.689% and 104.897%. The “Residual urease activity (percent of control)” value (jack bean urease (JBU) [2]; 20 min incubation) was 115.579% and 114.01% and 114.79%, the “Residual urease activity (percent of control)” value (jack bean urease (JBU) [2]; 40 min incubation) was 142.945% and 126.676% and 135.643% and the “Residual urease activity (percent of control)” value (H. pylori urease (HPU) [3]; order (Protector+Pal)+urease) was 93.1647% and 102.135% and 96.7756%. For the same compound, the “Residual urease activity (percent of control)” value (H. pylori urease (HPU) [3]; order (urease+Pal)+Protector) was 108.215% and 111.632% and 112.117%, the “Residual urease activity (percent of control)” value (H. pylori urease (HPU) [3]; order (urease+Protector)+Pal) was 93.9563% and 102.92% and 98.1268% and the “Residual urease activity (percent of control)” value (jack bean urease (JBU) [4]; order (Protector+Pal)+urease) was 164.505% and 163.42% and 167.948%. The “Residual urease activity (percent of control)” value (jack bean urease (JBU) [4]; order (urease+Pal)+Protector) was 156.562% and 141.035% and 115.717%, the “Residual urease activity (percent of control)” value (jack bean urease (JBU) [4]; order (urease+Protector)+Pal) was 175.198% and 170.348% and 183.958% and the “HPU activity with DTT without Pal” value (H. pylori urease (HPU) [5]; [9]) was “ca. 100%”. The Urease activity (H. pylori urease (HPU) [5]; [10]) was 95.491% and 88.7241% and 81.9292%, the Urease activity (H. pylori urease (HPU) [5]; [11]) was 99.0165% and 99.0712% and 98.1423% and the Urease activity (H. pylori urease (HPU) [5]; [12]) was 99.1346% and 97.2572% and 95.4326%. For the same compound, the Urease activity (H. pylori urease (HPU) [5]; [13]) was 97.9325% and 92.9515% and 87.6438%, the Urease activity (H. pylori urease (HPU) [5]; incubation time 40 min, DTT added post 20 min) was 92.9813% and 91.5048% and 89.9013% and the Urease activity (H. pylori urease (HPU) [5]; incubation time 60 min) was 98.0126% and 92.5129% and 87.7924%. The Urease activity (H. pylori urease (HPU) [5]; incubation time 90 min) was 91.4647% and 89.1159% and 85.7645%, the Urease activity (H. pylori urease (HPU) [5]; [14]) was 96.0166% and 88.9974% and 82.2782% and the “JBU activity with DTT without Pal” value (jack bean urease (JBU) [6]; [9]) was “ca. 100%”. The Urease activity (jack bean urease (JBU) [6]; [10]) was 121.742% and 114.981% and 108.343%, the Urease activity (jack bean urease (JBU) [6]; [11]) was 110.236% and 112.928% and 115.246% and the Urease activity (jack bean urease (JBU) [6]; [12]) was 113.236% and 116.183% and 119.514%. The Urease activity (jack bean urease (JBU) [6]; [13]) was 121.141% and 121.265% and 120.209%, the Urease activity (jack bean urease (JBU) [6]; incubation time 25 min) was 120.019% and 120.291% and 121.459% and the Urease activity (jack bean urease (JBU) [6]; incubation time 40 min) was 107.983% and 105.801% and 103.225%. The Urease activity (jack bean urease (JBU) [6]; incubation time 60 min) was 111.088% and 107.798% and 104.326%, the Urease activity (jack bean urease (JBU) [6]; incubation time 90 min) was 107.125% and 104.437% and 101.122% and the Urease activity (jack bean urease (JBU) [6]; [14]) was 112.893% and 110.524% and 108.243%.

In the case of `CC(=O)NO` [AHA, Acetohydroxamic acid], the IC50 (H. pylori urease (HPU) [7]) is reported as 70 ± 10 µM and the IC50 (jack bean urease (JBU) [8]) is reported as 20 µM.

— publication PMC5207512, “Inhibition of Helicobacter pylori and Its Associated Urease by Palmatine: Investigation on the Potential Mechanism” (PLoS ONE, 2017)
